# Laboratory results from PubChem BioAssay AID1671241.
# Target: Macrophage colony-stimulating factor 1 receptor (Homo sapiens) (UniProt P07333)
# Assay: inhibition of human FMS receptor kinase activity – biochemical, Z'-LYTE, FRET, protease-coupled, direct format, dose response (AID 1671241)
# Settings: Z'-LYTE FRET kinase assay, CSF1R
# Macrophage colony-stimulating factor 1 receptor (Homo sapiens), sequence (P07333 whole entry, looked up): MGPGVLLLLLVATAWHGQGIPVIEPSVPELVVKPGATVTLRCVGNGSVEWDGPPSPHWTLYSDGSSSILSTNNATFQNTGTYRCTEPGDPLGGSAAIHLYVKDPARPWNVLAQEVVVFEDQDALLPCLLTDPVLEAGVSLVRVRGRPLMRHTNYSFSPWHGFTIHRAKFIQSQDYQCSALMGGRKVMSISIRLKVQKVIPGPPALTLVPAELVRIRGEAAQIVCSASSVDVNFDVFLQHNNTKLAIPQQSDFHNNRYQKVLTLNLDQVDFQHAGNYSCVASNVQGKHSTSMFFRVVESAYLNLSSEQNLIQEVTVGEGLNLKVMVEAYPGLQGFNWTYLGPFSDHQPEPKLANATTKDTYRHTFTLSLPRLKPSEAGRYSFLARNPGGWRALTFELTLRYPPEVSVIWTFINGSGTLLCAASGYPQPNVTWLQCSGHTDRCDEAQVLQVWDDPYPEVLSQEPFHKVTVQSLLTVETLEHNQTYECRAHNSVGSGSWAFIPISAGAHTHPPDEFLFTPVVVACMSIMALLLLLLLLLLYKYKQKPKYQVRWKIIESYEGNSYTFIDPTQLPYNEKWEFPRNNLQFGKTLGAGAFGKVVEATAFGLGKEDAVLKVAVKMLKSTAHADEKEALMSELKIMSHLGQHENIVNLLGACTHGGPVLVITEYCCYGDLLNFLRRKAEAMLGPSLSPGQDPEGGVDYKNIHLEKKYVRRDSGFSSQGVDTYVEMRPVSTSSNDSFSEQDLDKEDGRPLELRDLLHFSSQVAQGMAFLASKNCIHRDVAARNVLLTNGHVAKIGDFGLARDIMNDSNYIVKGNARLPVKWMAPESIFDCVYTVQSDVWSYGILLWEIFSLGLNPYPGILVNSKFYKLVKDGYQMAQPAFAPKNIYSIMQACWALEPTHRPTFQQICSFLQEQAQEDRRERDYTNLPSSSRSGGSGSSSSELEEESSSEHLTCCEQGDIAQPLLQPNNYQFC
smiles,measurement,value
COc1cc2ncnc(Nc3cccc(Cl)c3)c2cc1OC,IC50,6.02 µM
